Results as given in US20250248391A1, “VIABLE VITREOUS GRAFTS FOR PRESERVATION AND RECOVER OF TISSUE FOR TRANSPLANT AND CLINICAL USE” (Clemson University Research Foundation, priority 2024, published 2025).
Read-outs that look alike come from different tables or passages of the source.

Assays:
[1] = alamarBlue metabolic activity of meniscal specimens; assay type: cell-based, Yorkshire pigs; conditions: 3.5 mm/SF: 3.5 mm specimens slow-frozen in Me2SO (10% v/v), normalized to specimen before treatment
Experimental: (§1) Following the completion of the warming and unloading steps, all tissues were subjected to recovery in DMEM supplemented with 1% P/S (e.g., DMEM/P/S) for one hour within a 37° C. incubator. Subsequently, the alamarBlue assay was conducted to assess the metabolic activity of tissues. This assay employs a water soluble fluorometric viability indicator, relying on the detection of metabolic activity. […] In the case of each meniscal specimen and each TMJ disc, evaluations were carried out both before and after different preservation treatments. For the whole meniscus, each fresh, slow-frozen, or vitrified sample underwent manual sectioning into sagittal sections, each measuring 1-2 mm in thickness, spanning from anterior to posterior horn. Within each region, a minimum of three sections were obtained.
(§2) Either each individual specimen or each section of the whole meniscus was incubated in 1 ml of DMEM/P/S and 100 μl alamarBlue reagent. This process was carried out under standard cell culture conditions for 3 hours. In contrast, each whole TMJ disc was incubated in 5.4 ml of DMEM/P/S and 600 μl alamarBlue reagent under standard cell culture conditions for 4 hours. Subsequently, fluorescence measurements were conducted in duplicate using a multimode microplate reader at an excitation wavelength of 544 nm and an emission wavelength of 590 nm. Following assessment, each sample was rinsed with DMEM/P/S for 30 mins to remove the alamarBlue reagent prior to proceeding with subsequent measurements. The time-course viability from day 0 to day 4 for each sample was assessed. In the case of meniscal specimens and whole TMJ discs, the results (expressed in relative fluorescence unit, RFU) of the slow-frozen and vitrified groups were normalized to the measurements taken from their respective fresh samples before any preservation treatments were applied. For the measurements of the whole meniscus, the results (expressed as RUF/mg of dry weight) from the slow-frozen and vitrified menisci were normalized to the corresponding values of fresh menisci within the same batch. Dry weight values of samples were measured using an analytical balance after being placed in a 60° C. oven over 48 hours subsequent to the completion of the time-course alamarBlue assay.

whole menisci [2] = experiment: Fluorescence live/dead viability of whole menisci; assay type: cell-based, Yorkshire pigs; conditions: for Viability (%): whole menisci, SF (slow-frozen in Me2SO 10% v/v)
Experimental: (§3) Tissue viability was assessed by fluorescence live/dead staining. Each cylindrical specimen was longitudinally divided into two sections for imaging along the sagittal plane. To comprehensively assess the whole meniscus, both transverse and sagittal sections were prepared. In the case of transverse sections, a 300 μm thick slice of the whole meniscus was obtained using a vibrating blade microtome due to its larger surface area. For sagittal sections, approximately 1-2 mm thick slices were manually cut from corresponding regions. For the TMJ disc samples, strips measuring 6 mm in width, encompassing the anterior, central, posterior, medial, and lateral regions, were manually excised from the whole disc using a scalpel. All cut meniscal slices were immersed in DMEM with 1% P/S culture medium with 4 μM calcein AM and 2 μM ethidium homodimer-1 at room temperature for 2 hours before imaging. In contrast, the TMJ slices underwent staining with distinct dye concentrations: 2 µM calcein AM and 4 μM ethidium homodimer-1, following the same set of conditions. The green-fluorescent calcein indicates living cells by intracellular esterase activity, while the red-fluorescent ethidium homodimer-1 indicates dead cells by loss of plasma membrane integrity. All images were captured using an inverted multiphoton laser scanning microscope. The excitation wavelength was set as 800 nm. Green fluorescence was collected within the 495-540 nm range, and red fluorescence was collected in the 575-630 nm range. Images were taken at a depth of 60 μm below the tissue surface. The whole transverse section images of the whole menisci and the whole sagittal section images of the TMJ disc strips were captured using a 4× objective magnification and stitched together. An interesting view of each region was imaged using a higher objective magnification of 10×. All sagittal section images for meniscal specimens, three primary regions of whole menisci, and five primary regions of whole TMJ discs were captured using a 10× objective magnification for quantitative analysis. Live/dead quantification of 3.5 mm thick specimens was performed within the middle layer image (with a thickness of 1.26 mm) to avoid the count of dead cells on both surfaces associated with manual sectioning. In the context of sagittal sections in each region of the whole meniscus, images were acquired, and cell viability was quantified for the inner, middle, and outer layers. Images of sagittal sections in each region of the TMJ disc were acquired and used for viability quantification. Live/dead quantification was performed using software. Cell viability was defined as the proportion between the count of viable cells and the total cell count (comprising both live and dead cells).

whole menisci [3] = experiment: alamarBlue metabolic activity of whole menisci; assay type: cell-based, Yorkshire pigs
Experimental: as §1, §2

whole TMJ discs [4] = experiment: Fluorescence live/dead viability of whole TMJ discs; assay type: cell-based, Yorkshire pigs; conditions: for Viability (%): Slow-frozen (Me2SO 10% v/v)
Experimental: as §3

whole TMJ discs [5] = experiment: alamarBlue metabolic activity of whole TMJ discs; assay type: cell-based, Yorkshire pigs; conditions: Slow-frozen (Me2SO 10% v/v)
Experimental: as §1, §2

[6] = articular cartilage of calves, 22° C.; 3.1M Me2SO, 3.1M PG, 2.2M formamide; ref [4]; cited from earlier work
[7] = 6.5M, porcine articular cartilage, ref [5], cited from earlier work
[8] = human articular cartilage, ref [6], cited from earlier work
[9] = 1.4M, tissue-engineered collagen scaffold, 20° C.; ref [7]; cited from earlier work

SMILES: C[S+](C)[O-] [Me2SO, dimethyl sulfoxide]
- Metabolic activity, Viability (%) ([1]; Day 0 post-warming): 47.0 ± 16.4%
- Metabolic activity, Viability (%) ([1]; Day 1): 43.0 ± 21.0%
- Metabolic activity, Viability (%) ([1]; Day 2): 39.0 ± 19.8%
- Metabolic activity, Viability (%) ([1]; Day 3): 39.5 ± 16.3%
- Metabolic activity, Viability (%) ([1]; Day 4): 52.6 ± 14.5%
- viability in whole menisci, average (whole menisci [2]; slow freezing (Me2SO 10% v/v)): ~21.6%
- Viability (%) (whole menisci [2]; Anterior region): 19.5 ± 9.6%
- Viability (%) (whole menisci [2]; Central region): 23.7 ± 6.4%
- Viability (%) (whole menisci [2]; Inner layer of sagittal sections): 20.3 ± 13.8%
- Viability (%) (whole menisci [2]; Middle layer of sagittal sections): 20.8 ± 8.9%
- Viability (%) (whole menisci [2]; Outer layer of sagittal sections): 24.6 ± 16.9%
- Viability (%) (whole menisci [2]; Posterior region): 21.4 ± 18.2%
- Metabolic activity, Viability (%) (whole menisci [3]; Anterior: SF (slow-frozen in Me2SO 10% v/v), Day 0 post-warming, normalized to fresh menisci day 0): 32.9 ± 11.1%
- Metabolic activity, Viability (%) (whole menisci [3]; Anterior: SF (slow-frozen in Me2SO 10% v/v), Day 1, normalized to fresh menisci day 0): 39.7 ± 10.1%
- Metabolic activity, Viability (%) (whole menisci [3]; Anterior: SF (slow-frozen in Me2SO 10% v/v), Day 2, normalized to fresh menisci day 0): 31.4 ± 7.8%
- Metabolic activity, Viability (%) (whole menisci [3]; Anterior: SF (slow-frozen in Me2SO 10% v/v), Day 3, normalized to fresh menisci day 0): 34.0 ± 6.9%
- Metabolic activity, Viability (%) (whole menisci [3]; Anterior: SF (slow-frozen in Me2SO 10% v/v), Day 4, normalized to fresh menisci day 0): 36.7 ± 7.5%
- Metabolic activity, Viability (%) (whole menisci [3]; Central: SF (slow-frozen in Me2SO 10% v/v), Day 0 post-warming, normalized to fresh menisci day 0): 43.1 ± 13.8%
- Metabolic activity, Viability (%) (whole menisci [3]; Central: SF (slow-frozen in Me2SO 10% v/v), Day 1, normalized to fresh menisci day 0): 55.4 ± 16.8%
- Metabolic activity, Viability (%) (whole menisci [3]; Central: SF (slow-frozen in Me2SO 10% v/v), Day 2, normalized to fresh menisci day 0): 35.1 ± 11.4%
- Metabolic activity, Viability (%) (whole menisci [3]; Central: SF (slow-frozen in Me2SO 10% v/v), Day 3, normalized to fresh menisci day 0): 37.3 ± 9.6%
- Metabolic activity, Viability (%) (whole menisci [3]; Central: SF (slow-frozen in Me2SO 10% v/v), Day 4, normalized to fresh menisci day 0): 35.3 ± 11.4%
- Metabolic activity, Viability (%) (whole menisci [3]; Posterior: SF (slow-frozen in Me2SO 10% v/v), Day 0 post-warming, normalized to fresh menisci day 0): 38.0 ± 9.3%
- Metabolic activity, Viability (%) (whole menisci [3]; Posterior: SF (slow-frozen in Me2SO 10% v/v), Day 1, normalized to fresh menisci day 0): 47.1 ± 7.2%
- Metabolic activity, Viability (%) (whole menisci [3]; Posterior: SF (slow-frozen in Me2SO 10% v/v), Day 2, normalized to fresh menisci day 0): 34.9 ± 7.3%
- Metabolic activity, Viability (%) (whole menisci [3]; Posterior: SF (slow-frozen in Me2SO 10% v/v), Day 3, normalized to fresh menisci day 0): 42.4 ± 7.4%
- Metabolic activity, Viability (%) (whole menisci [3]; Posterior: SF (slow-frozen in Me2SO 10% v/v), Day 4, normalized to fresh menisci day 0): 45.7 ± 13.5%
- Viability (%) (whole TMJ discs [4]; Anterior): 37.4 ± 2.7%
- Viability (%) (whole TMJ discs [4]; Central): 40.1 ± 4.2%
- Viability (%) (whole TMJ discs [4]; Lateral): 39.0 ± 2.7%
- Viability (%) (whole TMJ discs [4]; Medial): 38.3 ± 3.5%
- Viability (%) (whole TMJ discs [4]; Posterior): 37.1 ± 2.2%
- viability (whole TMJ discs [4]; slow-frozen samples (Me2SO 10% v/v)): less than 40%
- Metabolic activity, Viability (%) (whole TMJ discs [5]; Day 0 post-warming, relative to respective fresh values): 32.0 ± 0.8%
- Metabolic activity, Viability (%) (whole TMJ discs [5]; Day 1, relative to respective fresh values): 33.3 ± 0.5%
- Metabolic activity, Viability (%) (whole TMJ discs [5]; Day 2, relative to respective fresh values): 28.9 ± 0.5%
- Metabolic activity, Viability (%) (whole TMJ discs [5]; Day 3, relative to respective fresh values): 29.1 ± 1.7%
- Metabolic activity, Viability (%) (whole TMJ discs [5]; Day 4, relative to respective fresh values): 28.0 ± 0.6%
- D (× 10^−10 m^2/s) [6]: 4.63 ± 0.85 × 10^−10 m^2/s
- D (× 10^−10 m^2/s) ([7]; 4° C.): 2.4 × 10^−10 m^2/s
- D (× 10^−10 m^2/s) ([7]; 22° C.): 3.0 × 10^−10 m^2/s
- D (× 10^−10 m^2/s) ([7]; 37° C.): 4.5 × 10^−10 m^2/s
- D (× 10^−10 m^2/s) ([8]; 1.4M, 4° C.): 6.1 × 10^−10 m^2/s
- D (× 10^−10 m^2/s) ([8]; 1.4M, 27° C.): 14.4 × 10^−10 m^2/s
- D (× 10^−10 m^2/s) ([8]; 14M, 4° C.): 3.1 × 10^−10 m^2/s
- D (× 10^−10 m^2/s) ([8]; 14M, 27° C.): 6.8 × 10^−10 m^2/s
- D (× 10^−10 m^2/s) [9]: 2.4 × 10^−10 m^2/s

SMILES: CC(O)CO (stereo not shown) [PG, propylene glycol]
- D (× 10^−10 m^2/s) [6]: 3.47 ± 0.67 × 10^−10 m^2/s
- D (× 10^−10 m^2/s) ([7]; 4° C.): 0.9 × 10^−10 m^2/s
- D (× 10^−10 m^2/s) ([7]; 22° C.): 1.6 × 10^−10 m^2/s
- D (× 10^−10 m^2/s) ([7]; 37° C.): 2.2 × 10^−10 m^2/s

SMILES: NC=O [formamide]
- D (× 10^−10 m^2/s) [6]: 6.67 ± 0.70 × 10^−10 m^2/s
